According to patent publication US20230085307A1, “PYRIDAZINONE COMPOUND AND HERBICIDE” (NISSAN CHEMICAL CORPORATION, priority 2019, published 2023):

What was measured:
[1] = system: barnyard grass; assay: Test Example 3: herbicidal effect by foliage application, Wagner pot (Table 18, symbol H); type: in vivo, barnyard grass (Echinochloa crus-galli); details: amount of applied herbicide 320 g/ha
Method in brief: (§1)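 Plants were sown in alluvial soil held under 0.1–0.5 cm standing water and grown 14 days in a greenhouse at 25–30 °C. An emulsifiable formulation, water-diluted to the set dose, was then sprayed onto the foliage, and effects were scored three weeks later using previously defined criteria.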

[2] = system: Chinese sprangletop; assay: Test Example 3: herbicidal effect by foliage application, Wagner pot (Table 18, symbol D); type: in vivo, chinese sprangletop (Leptochloa chinensis); details: amount of applied herbicide 320 g/ha
Method in brief: as §1

[3] = system: rice flat sedge; assay: Test Example 3: herbicidal effect by foliage application, Wagner pot (Table 18, symbol E); type: in vivo, rice flat sedge (Cyperus iria); details: amount of applied herbicide 320 g/ha
Method in brief: as §1

[4] = system: southern crabgrass; assay: Test Example 4: herbicidal effect by soil treatment (Table 19, symbol F); type: in vivo, southern crabgrass (Digitaria ciliaris); details: amount of applied herbicide 320 g/ha
Method in brief: (§2)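 Soil-surface application: an emulsion agent diluted with water to the predetermined dose is sprayed uniformly over seeds lying under roughly 1.5 cm of sterilized diluvial soil. Boxes stay in a greenhouse at 25° C. to 30° C. Three weeks later, each species is graded on previously defined criteria.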

[5] = system: green foxtail; assay: Test Example 4: herbicidal effect by soil treatment (Table 19, symbol G); type: in vivo, green foxtail (Setaria viridis); details: amount of applied herbicide 320 g/ha
Method in brief: as §2

[6] = system: barnyard grass; assay: Test Example 4: herbicidal effect by soil treatment (Table 19, symbol H); type: in vivo, barnyard grass (Echinochloa crus-galli); details: amount of applied herbicide 320 g/ha
Method in brief: as §2

[7] = system: wild oat; assay: Test Example 4: herbicidal effect by soil treatment (Table 19, symbol I); type: in vivo, wild oat (Avena fatua); details: amount of applied herbicide 320 g/ha
Method in brief: as §2

[8] = system: blackgrass; assay: Test Example 4: herbicidal effect by soil treatment (Table 19, symbol J); type: in vivo, blackgrass (Alopecurus myosuroides); details: amount of applied herbicide 320 g/ha
Method in brief: as §2

[9] = system: Italian ryegrass; assay: Test Example 4: herbicidal effect by soil treatment (Table 19, symbol K); type: in vivo, Italian ryegrass (Lolium multiflorum); details: amount of applied herbicide 320 g/ha
Method in brief: as §2

[10] = system: windgrass; assay: Test Example 4: herbicidal effect by soil treatment (Table 19, symbol L); type: in vivo, windgrass (Apera spica-venti); details: amount of applied herbicide 320 g/ha
Method in brief: as §2

[11] = system: velvetleaf; assay: Test Example 4: herbicidal effect by soil treatment (Table 19, symbol M); type: in vivo, velvetleaf (Abutilon theophrasti); details: amount of applied herbicide 320 g/ha
Method in brief: as §2

[12] = system: redroot pigweed; assay: Test Example 4: herbicidal effect by soil treatment (Table 19, symbol N); type: in vivo, redroot pigweed (Amaranthus retroflexus); details: amount of applied herbicide 320 g/ha
Method in brief: as §2

[13] = system: lambsquarters; assay: Test Example 4: herbicidal effect by soil treatment (Table 19, symbol O); type: in vivo, lambsquarters (Chenopodium album); details: amount of applied herbicide 320 g/ha
Method in brief: as §2

[14] = system: false cleavers; assay: Test Example 4: herbicidal effect by soil treatment (Table 19, symbol Q); type: in vivo, false cleavers (Galium spurium); details: amount of applied herbicide 320 g/ha
Source text: [Test Example 4] Herbicidal Effect Test by Soil Treatment
Sterilized diluvial soil was placed in a plastic box having a length of 21 cm, a width of 13 cm, and a depth of 7 cm. The seeds of each of southern crabgrass, green foxtail, barnyard grass, wild oat, blackgrass, Italian ryegrass, windgrass, velvetleaf, redroot pigweed, lambsquarters, chickweed, false cleavers, persian speedwell, corn, soybean, rice, wheat, beet, and rapeseed were sowed in a spot-like manner and covered with the soil having a thickness of about 1.5 cm. Subsequently, the emulsion agent of the compound of the present invention prepared according to Formulation Example 2 was diluted with water so as to achieve a predetermined herbicide amount, and the diluted emulsion agent was uniformly applied to the surface of the soil with a small-sized spray. The plastic box was placed in a greenhouse at 25° C. to 30° C. for growth of the plants. Three weeks after the herbicide application, the effect of the herbicide on each plant was evaluated according to the criteria of Test Example 1.

[15] = system: southern crabgrass; assay: Test Example 5: herbicidal effect by foliage application, plastic box (Table 20, symbol F); type: in vivo, southern crabgrass (Digitaria ciliaris); details: foliage application, 320 g/ha
Method in brief: (§3)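 Sow seeds spot-wise in sterilized diluvial soil; cover with ~1.5 cm soil. Grow 14 days in greenhouse, 25° C. to 30° C. Spray foliage with emulsion diluted to predetermined amount. Rate effect after 3 weeks.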

[16] = system: green foxtail; assay: Test Example 5: herbicidal effect by foliage application, plastic box (Table 20, symbol G); type: in vivo, green foxtail (Setaria viridis); details: foliage application, 320 g/ha
Method in brief: as §3

[17] = system: barnyard grass; assay: Test Example 5: herbicidal effect by foliage application, plastic box (Table 20, symbol H); type: in vivo, barnyard grass (Echinochloa crus-galli); details: foliage application, 320 g/ha
Method in brief: as §3

[18] = system: wild oat; assay: Test Example 5: herbicidal effect by foliage application, plastic box (Table 20, symbol I); type: in vivo, wild oat (Avena fatua); details: foliage application, 320 g/ha
Method in brief: as §3

[19] = system: blackgrass; assay: Test Example 5: herbicidal effect by foliage application, plastic box (Table 20, symbol J); type: in vivo, blackgrass (Alopecurus myosuroides); details: foliage application, 320 g/ha
Method in brief: as §3

[20] = system: Italian ryegrass; assay: Test Example 5: herbicidal effect by foliage application, plastic box (Table 20, symbol K); type: in vivo, Italian ryegrass (Lolium multiflorum); details: foliage application, 320 g/ha
Method in brief: as §3

[21] = system: windgrass; assay: Test Example 5: herbicidal effect by foliage application, plastic box (Table 20, symbol L); type: in vivo, windgrass (Apera spica-venti); details: foliage application, 320 g/ha
Method in brief: as §3

[22] = system: velvetleaf; assay: Test Example 5: herbicidal effect by foliage application, plastic box (Table 20, symbol M); type: in vivo, velvetleaf (Abutilon theophrasti); details: foliage application, 320 g/ha
Method in brief: as §3

[23] = system: redroot pigweed; assay: Test Example 5: herbicidal effect by foliage application, plastic box (Table 20, symbol N); type: in vivo, redroot pigweed (Amaranthus retroflexus); details: foliage application, 320 g/ha
Method in brief: as §3

[24] = system: lambsquarters; assay: Test Example 5: herbicidal effect by foliage application, plastic box (Table 20, symbol O); type: in vivo, lambsquarters (Chenopodium album); details: foliage application, 320 g/ha
Method in brief: as §3

[25] = system: chickweed; assay: Test Example 5: herbicidal effect by foliage application, plastic box (Table 20, symbol P); type: in vivo, common chickweed (Stellaria media); details: foliage application, 320 g/ha
Method in brief: as §3

[26] = system: persian speedwell; assay: Test Example 5: herbicidal effect by foliage application, plastic box (Table 20, symbol R); type: in vivo, Persian speedwell (Veronica persica); details: foliage application, 320 g/ha
Method in brief: as §3

[27] = evaluated three weeks after application

## COc1ccccc1-c1sc2ccc(C(F)(F)F)cc2c1-c1c(O)c(C)nn(C)c1=O [2-162]
[1]
  herbicidal effect on H: barnyard grass: 3 (Herbicidal rate of 40% or more and less than 70%)
[2]
  herbicidal effect on D: Chinese sprangletop: 0 (Herbicidal rate of 5% or less (almost no effect))
[3]
  herbicidal effect on E: rice flat sedge: 3 (Herbicidal rate of 40% or more and less than 70%)
[4]
  F: southern crabgrass, herbicidal effect rating: 0 (Herbicidal rate of 5% or less (almost no effect))
[5]
  G: green foxtail, herbicidal effect rating: 3 (Herbicidal rate of 40% or more and less than 70%)
[6]
  H: barnyard grass, herbicidal effect rating: 0 (Herbicidal rate of 5% or less (almost no effect))
[7]
  I: wild oat, herbicidal effect rating: 0 (Herbicidal rate of 5% or less (almost no effect))
[8]
  J: blackgrass, herbicidal effect rating: 0 (Herbicidal rate of 5% or less (almost no effect))
[9]
  K: Italian ryegrass, herbicidal effect rating: 0 (Herbicidal rate of 5% or less (almost no effect))
[10]
  L: windgrass, herbicidal effect rating: 0 (Herbicidal rate of 5% or less (almost no effect))
[11]
  M: velvetleaf, herbicidal effect rating: 0 (Herbicidal rate of 5% or less (almost no effect))
[12]
  N: redroot pigweed, herbicidal effect rating: 2 (Herbicidal rate of 20% or more and less than 40%)
[13]
  O: lambsquarters, herbicidal effect rating: 1 (Herbicidal rate of 5% or more and less than 20%)
[14]
  Q: false cleavers, herbicidal effect rating: 0 (Herbicidal rate of 5% or less (almost no effect))
[15]; [27]
  herbicidal effect on F: southern crabgrass (criteria 0-5): 0 (Herbicidal rate of 5% or less (almost no effect))
[16]; [27]
  herbicidal effect on G: green foxtail (criteria 0-5): 0 (Herbicidal rate of 5% or less (almost no effect))
[17]; [27]
  herbicidal effect on H: barnyard grass (criteria 0-5): 0 (Herbicidal rate of 5% or less (almost no effect))
[18]; [27]
  herbicidal effect on I: wild oat (criteria 0-5): 0 (Herbicidal rate of 5% or less (almost no effect))
[19]; [27]
  herbicidal effect on J: blackgrass (criteria 0-5): 0 (Herbicidal rate of 5% or less (almost no effect))
[20]; [27]
  herbicidal effect on K: Italian ryegrass (criteria 0-5): 0 (Herbicidal rate of 5% or less (almost no effect))
[21]; [27]
  herbicidal effect on L: windgrass (criteria 0-5): 0 (Herbicidal rate of 5% or less (almost no effect))
[22]; [27]
  herbicidal effect on M: velvetleaf (criteria 0-5): 2 (Herbicidal rate of 20% or more and less than 40%)
[23]; [27]
  herbicidal effect on N: redroot pigweed (criteria 0-5): 3 (Herbicidal rate of 40% or more and less than 70%)
[24]; [27]
  herbicidal effect on O: lambsquarters (criteria 0-5): 0 (Herbicidal rate of 5% or less (almost no effect))
[25]; [27]
  herbicidal effect on P: chickweed (criteria 0-5): 5 (Herbicidal rate of 90% or more (almost completely withered))
[26]; [27]
  herbicidal effect on R: persian speedwell (criteria 0-5): 2 (Herbicidal rate of 20% or more and less than 40%)

## Cc1nn(C)c(=O)c(-c2c(-c3ccc(F)cc3)sc3cc(Cl)ccc23)c1O [3-031]
[1]
  herbicidal effect on H: barnyard grass: 5 (Herbicidal rate of 90% or more (almost completely withered))
[2]
  herbicidal effect on D: Chinese sprangletop: 2 (Herbicidal rate of 20% or more and less than 40%)
[3]
  herbicidal effect on E: rice flat sedge: 3 (Herbicidal rate of 40% or more and less than 70%)
[4]
  F: southern crabgrass, herbicidal effect grade: 3 (Herbicidal rate of 40% or more and less than 70%)
[5]
  G: green foxtail, herbicidal effect grade: 4 (Herbicidal rate of 70% or more and less than 90%)
[6]
  H: barnyard grass, herbicidal effect grade: 3 (Herbicidal rate of 40% or more and less than 70%)
[7]
  I: wild oat, herbicidal effect grade: 1 (Herbicidal rate of 5% or more and less than 20%)
[8]
  J: blackgrass, herbicidal effect grade: 0 (Herbicidal rate of 5% or less (almost no effect))
[9]
  K: Italian ryegrass, herbicidal effect grade: 3 (Herbicidal rate of 40% or more and less than 70%)
[11]
  M: velvetleaf, herbicidal effect grade: 2 (Herbicidal rate of 20% or more and less than 40%)
[12]
  N: redroot pigweed, herbicidal effect grade: 3 (Herbicidal rate of 40% or more and less than 70%)
[13]
  O: lambsquarters, herbicidal effect grade: 4 (Herbicidal rate of 70% or more and less than 90%)
[14]
  Q: false cleavers, herbicidal effect grade: 4 (Herbicidal rate of 70% or more and less than 90%)
[15]; three weeks after application
  F: southern crabgrass, herbicidal effect grade: 4 (Herbicidal rate of 70% or more and less than 90%)
[16]; three weeks after application
  G: green foxtail, herbicidal effect grade: 5 (Herbicidal rate of 90% or more (almost completely withered))
[17]; three weeks after application
  H: barnyard grass, herbicidal effect grade: 4 (Herbicidal rate of 70% or more and less than 90%)
[18]; three weeks after application
  I: wild oat, herbicidal effect grade: 5 (Herbicidal rate of 90% or more (almost completely withered))
[19]; three weeks after application
  J: blackgrass, herbicidal effect grade: 4 (Herbicidal rate of 70% or more and less than 90%)
[20]; three weeks after application
  K: Italian ryegrass, herbicidal effect grade: 5 (Herbicidal rate of 90% or more (almost completely withered))
[21]; three weeks after application
  L: windgrass, herbicidal effect grade: 5 (Herbicidal rate of 90% or more (almost completely withered))
[22]; three weeks after application
  M: velvetleaf, herbicidal effect grade: 5 (Herbicidal rate of 90% or more (almost completely withered))
[23]; three weeks after application
  N: redroot pigweed, herbicidal effect grade: 5 (Herbicidal rate of 90% or more (almost completely withered))
[24]; three weeks after application
  O: lambsquarters, herbicidal effect grade: 4 (Herbicidal rate of 70% or more and less than 90%)
[25]; three weeks after application
  P: chickweed, herbicidal effect grade: 5 (Herbicidal rate of 90% or more (almost completely withered))
[26]; three weeks after application
  R: persian speedwell, herbicidal effect grade: 5 (Herbicidal rate of 90% or more (almost completely withered))
